Source: ChEMBL document CHEMBL5230101, “Unique Domain for a Unique Target: Selective Inhibitors of Host Cell DDX3X to Fight Emerging Viruses” (J Med Chem, 2020)
Calls of active or inactive are those of the source. The rule behind the calls is not given here.

Key:
[1] = biological target: ATP-dependent RNA helicase DDX3X (Homo sapiens) (UniProt O00571); experiment: Inhibition of human recombinant full length DDX3X helicase activity expressed in Escherichia coli using dsRNA as substrate measured after 40 mins by FRET assay
Homo sapiens [2] = species: Homo sapiens; experiment: Inhibition of human recombinant full length DDX3X E256A mutant helicase activity using dsRNA as substrate measured after 40 mins by FRET assay
Homo sapiens [3] = species: Homo sapiens; experiment: Inhibition of human recombinant full length DDX3X R262A mutant helicase activity using dsRNA as substrate measured after 40 mins by FRET assay
[4] = biological target: T1, ATP-dependent RNA helicase DDX1 (Homo sapiens) (UniProt Q92499); experiment: Inhibition of human DDX1 helicase activity
T1 sequence (whole entry): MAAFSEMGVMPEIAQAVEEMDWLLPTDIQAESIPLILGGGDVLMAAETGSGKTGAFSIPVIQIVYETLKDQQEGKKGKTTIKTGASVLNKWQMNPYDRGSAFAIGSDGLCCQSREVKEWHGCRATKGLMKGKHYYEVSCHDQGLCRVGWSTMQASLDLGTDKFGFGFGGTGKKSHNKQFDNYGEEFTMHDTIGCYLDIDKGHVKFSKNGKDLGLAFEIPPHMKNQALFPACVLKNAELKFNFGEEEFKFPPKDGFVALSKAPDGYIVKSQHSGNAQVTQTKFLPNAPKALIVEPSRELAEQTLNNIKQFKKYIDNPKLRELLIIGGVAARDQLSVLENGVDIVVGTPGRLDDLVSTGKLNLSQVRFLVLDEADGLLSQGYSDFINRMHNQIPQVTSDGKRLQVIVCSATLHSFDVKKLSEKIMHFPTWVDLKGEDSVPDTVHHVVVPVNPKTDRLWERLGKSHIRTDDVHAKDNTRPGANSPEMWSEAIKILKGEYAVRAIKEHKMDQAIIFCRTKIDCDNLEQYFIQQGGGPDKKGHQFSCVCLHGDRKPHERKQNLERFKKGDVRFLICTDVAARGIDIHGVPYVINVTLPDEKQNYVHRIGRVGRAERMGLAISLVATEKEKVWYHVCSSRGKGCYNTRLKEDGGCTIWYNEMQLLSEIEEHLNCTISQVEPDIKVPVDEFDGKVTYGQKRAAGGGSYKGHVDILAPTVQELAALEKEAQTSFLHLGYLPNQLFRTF

Arabidopsis thaliana = experiment: Inhibition of Arabidopsis thaliana STRS2 helicase activity
Hepacivirus hominis = experiment: Inhibition of Hepatitis C virus NSP 3 helicase activity
dengue virus type 2 = experiment: Antiviral activity against DENV2 New Guinea C strain infected in human Huh-7 cells measured after 72 hrs by immunodetection assay; assay type: functional, organism-based; settings: Huh-7, 72 h
West Nile virus = experiment: Antiviral activity against WNV infected in human Huh-7 cells preincubated with cells for 1 hr and measured after 4 days by plaque reduction assay; assay type: functional, organism-based
Huh-7 [5] = experiment: Cytotoxicity against human Huh-7 cells incubated for 72 hrs by Cell Titer-Glo luminescence assay; assay type: functional
Huh-7 [6] = experiment: Cytotoxicity against human Huh-7 cells incubated for 3 days by MTT assay; assay type: functional; settings: Huh-7, 72 h, time 3 day

ATP-dependent RNA helicase DDX3X (Homo sapiens), sequence (O00571 2-662 limits assumed): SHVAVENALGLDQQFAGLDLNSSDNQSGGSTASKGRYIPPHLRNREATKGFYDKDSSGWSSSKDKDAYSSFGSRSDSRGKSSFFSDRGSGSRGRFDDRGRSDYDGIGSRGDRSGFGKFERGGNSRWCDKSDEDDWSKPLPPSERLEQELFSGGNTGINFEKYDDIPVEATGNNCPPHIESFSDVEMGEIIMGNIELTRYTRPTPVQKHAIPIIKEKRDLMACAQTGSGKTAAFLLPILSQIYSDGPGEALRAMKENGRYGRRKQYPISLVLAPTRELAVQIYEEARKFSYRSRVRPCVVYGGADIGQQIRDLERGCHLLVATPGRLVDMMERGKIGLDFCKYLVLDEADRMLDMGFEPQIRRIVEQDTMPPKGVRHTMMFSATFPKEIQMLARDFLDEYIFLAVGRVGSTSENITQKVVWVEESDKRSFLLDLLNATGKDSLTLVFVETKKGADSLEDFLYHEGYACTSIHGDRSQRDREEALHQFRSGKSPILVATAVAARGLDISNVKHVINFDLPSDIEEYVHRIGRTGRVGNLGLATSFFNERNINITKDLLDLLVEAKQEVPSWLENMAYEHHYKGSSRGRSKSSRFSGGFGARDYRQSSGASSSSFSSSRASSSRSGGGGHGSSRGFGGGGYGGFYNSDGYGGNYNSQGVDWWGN

COc1ccc(CN)cc1Cn1cccn1
ID50 [1]: inactive

NC[C@@H](O)CN(c1ccccc1)c1ccccc1
ID50 [1]: 0.006 µM
ID50 (Homo sapiens [2]): 0.3 µM
ID50 (Homo sapiens [3]): 0.004 µM
ID50 [4]: 58 µM
ID50 (Arabidopsis thaliana): > 100 µM
ID50 (Hepacivirus hominis): > 100 µM
IC50 (dengue virus type 2): 6.3 µM
IC50 (West Nile virus): 0.88 µM
CC50 (Huh-7 [5]): 79 µM
CC50 (Huh-7 [6]): > 100 µM

Nc1ccc(S(=O)(=O)c2ccccc2)cc1
ID50 [1]: 200 µM

CC1CC(C)CN(S(=O)(=O)c2ccc(N)cc2)C1 (stereo not drawn)
ID50 [1]: inactive

NC(=O)c1ncn([C@@H]2O[C@H](CO)[C@@H](O)[C@H]2O)n1 [RIBAVIRIN]
IC50 (West Nile virus): 91.5 µM
CC50 (Huh-7 [5]): > 100 µM
CC50 (Huh-7 [6]): > 100 µM

CCOC(=O)Nc1ccc2c(c1)N(C(=O)CCN(CC)CC)c1ccccc1CC2
ID50 [1]: inactive

NC[C@H](O)CN(c1ccccc1)c1ccccc1
ID50 [1]: 0.007 µM
IC50 (dengue virus type 2): 12.6 µM
IC50 (West Nile virus): 0.9 µM
CC50 (Huh-7 [5]): 120 µM
CC50 (Huh-7 [6]): > 100 µM

OC(C#CCN1CCCCC1)(c1ccccc1)c1ccccc1
ID50 [1]: inactive

NCC(O)CN(c1ccccc1)c1ccccc1 (racemic) [listing 1 of 2 here]
ID50 [1]: 0.002 µM
ID50 (Homo sapiens [2]): 73 µM
ID50 (Homo sapiens [3]): 0.001 µM
ID50 [4]: 18 µM
ID50 (Arabidopsis thaliana): > 100 µM
ID50 (Hepacivirus hominis): > 100 µM

CC(=O)N1c2ccccc2CCc2cc([N+](=O)[O-])ccc21
ID50 [1]: inactive

NCC(O)CN(c1ccccc1)c1ccccc1 (stereo not drawn)
ID50 [1]: 0.7 µM

CC(N)Cc1cn(Cc2ccccc2)c2ccccc12 (stereo not drawn)
ID50 [1]: inactive

CNC(=O)N1c2ccccc2CCc2ccccc21
ID50 [1]: inactive

NCC(O)CN(c1ccccc1)c1ccccc1 (racemic) [listing 2 of 2 here]
IC50 (dengue virus type 2): 7.9 µM
IC50 (West Nile virus): 2.3 µM
CC50 (Huh-7 [5]): 100 µM
CC50 (Huh-7 [6]): > 100 µM

Nc1ccc(Nc2nc3ccccc3[nH]2)cc1
ID50 [1]: inactive
